Data taken from US20130046257A1, “METHODS OF USING AGENTS THAT MODULATE CLAUDIN EXPRESSION” (priority 2010, published 2013).

Assays:
occludin and ZO-1 = test: Expression of occludin and ZO-1 in PHK differentiated with Th2 cytokines; format: cell-based, human; details: PHK differentiated with cytokine
Method: (§1) Human keratinocytes were isolated from neonatal foreskin. Poumay et al., “Basal Detachment of the Epidermis Using Dispase: Tissue Spatial Organization and Fate of Integrin Alpha 6 Beta 4 and Hemidesmosomes,” J. Invest. Dermatol. 102:111-7 (1994), which is hereby incorporated by reference in its entirety. PHK were cultured in Keratinocyte-SFM (Invitrogen/Gibco) with 1% Pen/Strep, 0.2% Amphotericin B (Invitrogen/Gibco). To differentiate PHK, cells were grown in DMEM (Invitrogen/Gibco) with 10% heat-inactivated fetal bovine serum (Invitrogen/Gibco) and 1% Pen/Strep, 0.2% Amphotericin B (Invitrogen/Gibco). For TJ modulation experiments, the following cytokines were added alone or in combination to the differentiation media; human IL-4 (50 ng/ml; R&D system) and IL-13 (50 ng/ml; R&D system). […]
(§2) Previous studies have shown that claudin-1 expression in noncutaneous epithelial cells can be modulated by cytokines and growth factors. […] To test this possibility, PHK were differentiated in the presence or absence of Th2 cytokines, IL-4 and IL-13, and the expression of claudin-1, occludin and ZO-1 was evaluated. […]

claudin-1 = test: Western blot of claudin-1 in PHK differentiated with Th2 cytokines; format: cell-based, human; details: 48 hours, 50 ng/ml, n=3
Method: as §1, §2

[1] = system: primary human keratinocytes (PHK); test: Trans Epithelial Electric Resistance (TEER) of PHK; format: cell-based
Method: Human keratinocytes were isolated from neonatal foreskin. Poumay et al., “Basal Detachment of the Epidermis Using Dispase: Tissue Spatial Organization and Fate of Integrin Alpha 6 Beta 4 and Hemidesmosomes,” J. Invest. Dermatol. 102:111-7 (1994), which is hereby incorporated by reference in its entirety. PHK were cultured in Keratinocyte-SFM (Invitrogen/Gibco) with 1% Pen/Strep, 0.2% Amphotericin B (Invitrogen/Gibco). To differentiate PHK, cells were grown in DMEM (Invitrogen/Gibco) with 10% heat-inactivated fetal bovine serum (Invitrogen/Gibco) and 1% Pen/Strep, 0.2% Amphotericin B (Invitrogen/Gibco). For TJ modulation experiments, the following cytokines were added alone or in combination to the differentiation media; human IL-4 (50 ng/ml; R&D system) and IL-13 (50 ng/ml; R&D system).
PHK were plated at a subconfluent density of 2.5−3×10^4 cells/filter in Transwell insert and cultured in Keratinocyte-SFM media until confluent. TEER was measured using an EVOMX voltohmmeter (World Precision Instruments, Sarasota, Fla.). The resistance of cell-free filters was subtracted from each experimental value.
PHK were plated on glass coverslips at 2-3×10^5 cells/well in a 6-well plate or at 2-3×10^4 cells/filter in Transwell insert (Costar; PET membrane, 0.4 μm pore size, 6.5 mm insert) in Keratinocyte-SFM without antibiotics. The next day after plating, cells were transfected with claudin-1 specific or control (scrambled) siRNAs (Santa Cruz) using Lipofectamine™ 2000 transfection Reagent (Invitrogen). TEER and permeability experiments were conducted 48 hours after PHK were switched to differentiation media.
TEER was measured in PHK as described above. PHK were stimulated with S. aureus-derived peptidoglycan (PGN, 0.2-20 μg/ml, n=3-7) (FIG. 19A), Malp-2 (10-1000 ng/ml, n=3) (FIG. 19B), and Pam3CSK4 a TLR1/2 ligand (0.01-20 μg/ml, n=3-6) (FIG. 19C). Data are presented by analyzing the area under the TEER curve and normalized to the mean values for the control group (media alone)*p<0.05; **p<0.01.

[2] = system: human cultured keratinocytes and reconstructed human epidermis; details: Kurasawa et al. 2009; cited from earlier work
human epidermis sheet = test: TEER of human epidermal sheets treated with sodium decanoate; format: cell-based; details: 1 mM, T0
Source text: Epidermal sheets were obtained from discarded human skin using a weck blade (0.08 inch). Epidermal samples were mounted in an adapted snap-well system (Pierro et al., “Zonula Occludens Toxin Structure-Function Analysis, Identification of the Fragment Biologically Active on Tight Junctions and of the Zonulin Receptor Binding Domain,” J. Biol.

[3] = system: CLDN1, occludin, ZO-1 and CLDN23; test: Western blot of TJ proteins in PHK treated with PGN or TLR2 ligands; format: cell-based, human; details: 48 hr; PGN 0.2-20 μg/ml, Pam3CSK4 0.1-20 μg/ml, MALP2 10-1000 ng/ml
Method: PHFK were treated with PGN (0, 0.2, 2, 20 μg/ml) (as shown in FIG. 21A), Pam3CSK4 (0, 0.1, 1, 20 μg/ml) (as shown in FIG. 21B), MALP2 (0, 10, 100, 1000 ng/ml) for 48 hr and CLDN1 (as shown in FIG. 21C), occludin, ZO-1 and CLDN23 protein levels were detected from whole cell lysates by Western blot. Quantitative protein expression was determined by densitometry of bands and normalization to the housekeeping protein ([…]). (Representative blot of n=2-3 experiments).

occludin mRNA = test: qPCR of occludin in PHK treated with ciglitazone; format: cell-based, human; details: CIG 5 μM, 24 h, PHK in high Calcium media (DMEM)
Method: (§3) PHK were differentiated in high Calcium media (DMEM) in the presence of CIG 5 μM in DMSO or media with equivalent amount of DMSO alone, for 24 h. Total RNA was extracted from PHK using the QlAshredder spin column (Qiagen) and RNeasy RNA isolation kits (Qiagen). The quality of total RNA samples (RNA Integrity Number, RIN) was assessed using an Agilent 2100 Bioanalyzer (Agilent Technologies, Palo Alto, Calif.).
(§4) qPCR was performed using the iScript™ cDNA Synthesis kit and iQ™ SYBER Green Supermix assay system (Bio-Rad Laboratories). All PCR amplifications were carried out in triplicate on an iQ5 Multicolor real-time PCR detection system (Bio-Rad). Primers were designed and synthesized by Integrated DNA Technologies. Relative gene expression was calculated by using the 2^−ΔΔCt method, as previously described. The normalized Ct value of each sample was calculated using GAPDH as an endogenous control gene.

CLDN1 mRNA = test: qPCR of CLDN1 in PHK treated with ciglitazone; format: cell-based, human; details: CIG 5 μM, 24 h, PHK in high Calcium media (DMEM)
Method: as §3, §4

claudin-1, sequence (O95832 whole entry): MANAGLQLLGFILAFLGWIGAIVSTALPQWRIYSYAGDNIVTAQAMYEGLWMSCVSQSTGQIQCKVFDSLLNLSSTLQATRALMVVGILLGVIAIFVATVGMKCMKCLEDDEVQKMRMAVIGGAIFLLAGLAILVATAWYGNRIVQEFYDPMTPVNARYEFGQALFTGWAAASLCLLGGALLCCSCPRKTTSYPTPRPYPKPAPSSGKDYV

## IL-13: IL-13 (R&D system), Th2 cytokine
Occludin and ZO-1
  effect on expression of occludin and ZO-1: no effect
claudin-1
  claudin-1 expression, fold over control: 1.6±0.3 fold
[1]; 0.5-100 ng/ml, PHK
  effect on TEER in dose response experiments: slight increase in TEER

## CCCCCCCCCC(=O)[O-].[Na+] [sodium decanoate]
[2]
  paracellular permeability: increased paracellular permeability
  transepithelial electrical resistance: decreased transepithelial electrical resistance
Human epidermis sheet
  TEER, dmem + SC_1: 1.00
  TEER, dmem + SC_2: 1.00
  TEER, mean SC: 1.00

## Pam3CSK4
[3]
  TJ protein expressions: increase TJ protein expressions

## Malp-2 [reference compound]
[3]
  TJ protein expressions: increase TJ protein expressions
[1]; PGN 0.2-20 μg/ml, Malp-2 10-1000 ng/ml, Pam3CSK4 0.01-20 μg/ml
  tight junction function (area under the TEER curve normalized to media alone): increase tight junction function

## CC1(COc2ccc(CC3SC(=O)NC3=O)cc2)CCCCC1 (stereo not shown) [ciglitazone]
Occludin mRNA
  occludin mRNA, fold: 2.0 fold
Occludin mRNA; listed as CIG
  occludin mRNA, fold: 2 fold
CLDN1 mRNA
  CLDN1 mRNA, fold over DMSO alone: 1.7 fold

B1: IL-4: human IL-4 (R&D system), Th2 cytokine (protein, UniProt P05112 25-153, looked up)
Interleukin-4: HKCDITLQEIIKTLNSLTEQKTLCTELTVTDIFAASKNTTEKETFCRAATVLRQFYSHHEKDTRCLGATAQQFHRHKQLIRFLKRLDRNLWGLAGLNSCPVKEANQSTLENFLERLKTIMREKYSKCSS
Occludin and ZO-1
  effect on expression of occludin and ZO-1: no effect
claudin-1
  claudin-1 expression, fold over control: 2.1±0.4 fold
